Measured values reported in patent US20220089540A1 (Board of Trustees of Michigan State University, priority 2019, published 2022).
Values joined by “and” are separate entries in the source; they are usually repeats but may differ in a detail not shown here. Equal values may be shown once.

Each compound was assayed on inducible nitric oxide synthase (iNOS) (assay: iNOS suppression / NO assay in LPS-stimulated macrophages or RAW264.7 cells (Griess reaction)). Details: Mus musculus, RAW264.7, 24 h, read-out: iNOS (300 nM).
Format: cell-based, mouse
Procedure: Macrophages or RAW264.7 like-cells were treated with various concentrations of rexinoids and stimulated with lipopolysaccaride (LPS) to activate inducible nitric oxide synthase (iNOS) to produce nitric oxide. This in vitro iNOS assay was rapid, reproducible, quantitative and predictive. Nitric oxide is implicated in the apoptosis of cancer cells via regulation of RXRs. There is a tight correlation between the % reduction of iNOS and efficacy in preclinical lung cancer models. Lower numbers indicate higher efficacy.
RAW264.7 cells were incubated with 300 nM rexinoids and stimulated with 1-2 ng/ml lipopolysaccaride (LPS) for 24 hours to activate inducible nitric oxide synthase (iNOS) to produce nitric oxide. Nitric oxide released into the media was measured by the Griess reaction.
Also, for Table 6, the iNOS suppression is the percent of the LPS-stimulated control where the compounds were measured at 100 nM or 300 nM.
Macrophages or RAW264.7 cells were treated with various concentrations of rexinoids listed in Table 7 and stimulated with lipopolysaccaride (LPS) to activate inducible nitric oxide synthase (iNOS) to produce nitric oxide. Nitric oxide (NO) is implicated in the apoptosis of cancer cells via regulation of RXRs. There is a tight correlation between the % reduction of iNOS and efficacy in preclinical lung cancer models. The in vitro iNOS assay is rapid, reproducible, quantitative and predictive, as NO production is measured in culture medium using the Griess reaction. Values are either presented as % inhibition or IC50 values.
For `C=C(c1ccc(C(=O)O)cc1)c1cc(C(C)(C)C)ccc1OCC` [Compound 4, 4-[1-(5-tert-butyl-2-ethoxyphenyl)ethenyl]benzoic Acid], the activity at 0.3 µM was 65%. For `C=C(c1ccc(C(=O)O)cc1)c1ccc(OCC(C)C)c(C(C)C)c1` [Compound 5, 4-{1-[3-iso-propyl-4-(2-methylpropoxy)phenyl]ethenyl}benzoic Acid], the activity at 0.3 µM was 65%. `C=C(c1ccc(C(=O)O)cc1)c1cc(C(C)C)c(OC(C)C)cc1C` [Compound 1, 4-{1-[2-methyl-5-(propan-2-yl)-4-(propan-2-yloxy)phenyl]ethenyl}benzoic Acid] gave an activity at 0.3 µM of 41%.

Same assay, conditions: Mus musculus, RAW264.7; Table 7
With `Cc1cc(N(CC(C)C)c2ccc(C(=O)O)cn2)cc(C(F)(F)F)c1` the IC50 was 300 to 600 nM. Compound `Cc1ccc(N(c2ccc(C(=O)O)cn2)C(C)C)cc1C(F)(F)F` has an IC50 of 300 to 600 nM. `CC(C)N(c1ccc(C(=O)O)cn1)c1cc(C(C)(C)C)cc2c1CCC2(C)C` [6-[(6-tert-butyl-1,1-dimethyl-2,3-dihydro-1H-inden-4-yl)(propan-2-yl)amino]pyridine-3-carboxylic Acid] gave an IC50 of 100 to 200 nM. Compound `CCCCN(c1ncc(C(=O)O)cn1)c1cc(C(C)(C)C)cc2c1CCC2(C)C` has an IC50 of 300 to 600 nM. `CC(C)N(c1cc(C(F)(F)F)cc(C(F)(F)F)c1)c1ncc(C(=O)O)cn1` showed an IC50 of 100 to 200 nM. For `CC(C)CN(c1ccc(C(=O)O)cn1)c1cc(C(C)(C)C)cc2c1CCC2(C)C`, the IC50 was 100 to 200 nM. For `CCCN(c1ncc(C(=O)O)cn1)c1cc(C(C)(C)C)cc2c1CCC2(C)C`, the IC50 was 300 to 600 nM. `CCCCN(c1ccc(C(=O)O)cn1)c1cc(C(C)(C)C)cc2c1CCC2(C)C` was tested, and the IC50 was 100 to 200 nM. In the case of `CCCN(c1ccc(C(=O)O)cn1)c1cc(C(C)(C)C)cc2c1CCC2(C)C`, the IC50 is reported as 100 to 200 nM. With `CC(C)(C)c1cc(N(CC2CC2)c2ccc(C(=O)O)cn2)c2c(c1)C(C)(C)CC2` the IC50 was 100 to 200 nM. Compound `Cc1ccc(N(CC2CC2)c2ccc(C(=O)O)cn2)cc1C(F)(F)F` has an IC50 of 300 to 600 nM. `CC(C)(C)c1cc(N(Cc2ccccc2)c2ccc(C(=O)O)cn2)cc(C(C)(C)C)c1` [drawing 195, 6-[benzyl(3,5-di-tert-butylphenyl)amino]pyridine-3-carboxylic Acid] was tested, and the IC50 was 300 to 600 nM. In the case of `CC(C)(C)c1cc(N(CC2CC2)c2ncc(C(=O)O)cn2)c2c(c1)C(C)(C)CC2`, the IC50 is reported as 200 to 300 nM. `CC(C)CN(c1ncc(C(=O)O)cn1)c1cc(C(C)(C)C)cc2c1CCC2(C)C` showed an IC50 of 300 to 600 nM. Compound `CC(C)N(c1ncc(C(=O)O)cn1)c1cc(C(C)(C)C)cc2c1CCC2(C)C` has an IC50 of 300 to 600 nM. Compound `Cc1ccc(N(CC(C)C)c2ccc(C(=O)O)cn2)cc1C(F)(F)F` [6-{[4-methyl-3-(trifluoromethyl)phenyl](2-methylpropyl)amino}pyridine-3-carboxylic Acid] has an IC50 of 300 to 600 nM. In the case of `CCCN(c1ccc(C)c(C(F)(F)F)c1)c1ccc(C(=O)O)cn1` [6-{[4-methyl-3-(trifluoromethyl)phenyl](propyl)amino}pyridine-3-carboxylic Acid], the IC50 is reported as 300 to 600 nM.

Same assay, conditions: Mus musculus; 300 nM; RAW264.7, 1-2 ng/ml LPS, 24 hours; Table 3; read-out: iNOS (300 nM)
With `C=C(c1ccc(C(=O)O)cc1)c1cc(C(C)C)c(OCC)cc1C` [Compound 2, 4-{1-[4-ethoxy-2-methyl-5-(propan-2-yl)phenyl]ethenyl}benzoic Acid] the activity at 0.3 µM was 45%.

These compounds were tested on SREBP (assay: SREBP induction in human liver (HepG2) cells, RT-PCR). Details: 300 nM; HepG2; Table 5.
Format: cell-based
Procedure: The SREBP transcription factor is involved in triglyceride synthesis, and its activation correlates with increased triglycerides in vivo. […] Lower numbers indicate better safety. […] Lower numbers indicate better safety. Also, for Table 6, SREBP activation was measured as fold induction compared to DMSO, where a lower value indicates the compound is an improvement over a control.
With `C=C(c1ncc(C(=O)O)cn1)c1cc2c(cc1C)C(C)(C)CCC2(C)C` [Pyrimidine Bexarotene, reference compound] the “Safety SREBP mRNA fold induction at 300 nM” value was 1.19 ± .1 fold.

Same assay, conditions: fold induction compared to DMSO; several values per cell; Table 6
With `CC(C)CN(c1cc(C(C)(C)C)cc(C(C)(C)C)c1)c1ccc(C(=O)O)cn1` [drawing 122] the SREBP activation was 1.7 fold induction and 2.0 fold induction.

Same assay, conditions: human, HepG2 cells (human liver carcinoma); 300 nM; HepG2; Table 5; read-out: Safety SREBP mRNA fold induction at 300 nM
Compound `C=C(c1ccc(C(=O)O)cc1)c1cc2c(cc1C)C(C)(C)CCC2(C)C` [drawing 61] has a fold induction at 0.3 µM of 2.23 ± 0.5. `C=C(c1ccc(C(=O)O)cc1)c1cc(C(C)C)c(OC(C)C)cc1C` [drawing 74] showed a fold induction at 0.3 µM of 1.08 ± 0.1. Work on `CCN(c1cc(C(C)(C)C)cc(C(C)(C)C)c1)c1ccc(C(=O)O)cn1` [drawing 65] yielded a fold induction at 0.3 µM of 2.62 ± 0.7. `CC(C)N(c1cc(C(C)(C)C)cc(C(C)(C)C)c1)c1ncc(C(=O)O)cn1` was tested, and the fold induction at 0.3 µM was 2.46 ± 0.8. For `CCCN(c1ccc(C(=O)O)cn1)c1cc(C(C)(C)C)ccc1C`, the fold induction at 0.3 µM was 1.8 ± 0.2.
